From US20180360710A1, “Sodium Zinc Alginate Structurant And Methods For Making And Using the Same” (Colgate-Palmolive Company, priority 2015, published 2018)

Compound	Total Zinc Conc. (at use level in formula)	Solubility (g/100 g H2O, 25° C.) (25° C.)	Calculated Soluble Zinc (at use level in formula)
[O]=[Zn] [ZnO, zinc oxide]	0.80%	–	–
[Cl-].[Cl-].[Zn+2] [ZnCl2, zinc chloride]	0.72%	408 g/100 g H2O	0.72%
